This experiment addresses T1, human recombinant HDAC6 (Homo sapiens, UniProt Q9UBN7).
T1 construct: purchased Calbiochem 382180
T1 sequence (Q9UBN7 1-1215): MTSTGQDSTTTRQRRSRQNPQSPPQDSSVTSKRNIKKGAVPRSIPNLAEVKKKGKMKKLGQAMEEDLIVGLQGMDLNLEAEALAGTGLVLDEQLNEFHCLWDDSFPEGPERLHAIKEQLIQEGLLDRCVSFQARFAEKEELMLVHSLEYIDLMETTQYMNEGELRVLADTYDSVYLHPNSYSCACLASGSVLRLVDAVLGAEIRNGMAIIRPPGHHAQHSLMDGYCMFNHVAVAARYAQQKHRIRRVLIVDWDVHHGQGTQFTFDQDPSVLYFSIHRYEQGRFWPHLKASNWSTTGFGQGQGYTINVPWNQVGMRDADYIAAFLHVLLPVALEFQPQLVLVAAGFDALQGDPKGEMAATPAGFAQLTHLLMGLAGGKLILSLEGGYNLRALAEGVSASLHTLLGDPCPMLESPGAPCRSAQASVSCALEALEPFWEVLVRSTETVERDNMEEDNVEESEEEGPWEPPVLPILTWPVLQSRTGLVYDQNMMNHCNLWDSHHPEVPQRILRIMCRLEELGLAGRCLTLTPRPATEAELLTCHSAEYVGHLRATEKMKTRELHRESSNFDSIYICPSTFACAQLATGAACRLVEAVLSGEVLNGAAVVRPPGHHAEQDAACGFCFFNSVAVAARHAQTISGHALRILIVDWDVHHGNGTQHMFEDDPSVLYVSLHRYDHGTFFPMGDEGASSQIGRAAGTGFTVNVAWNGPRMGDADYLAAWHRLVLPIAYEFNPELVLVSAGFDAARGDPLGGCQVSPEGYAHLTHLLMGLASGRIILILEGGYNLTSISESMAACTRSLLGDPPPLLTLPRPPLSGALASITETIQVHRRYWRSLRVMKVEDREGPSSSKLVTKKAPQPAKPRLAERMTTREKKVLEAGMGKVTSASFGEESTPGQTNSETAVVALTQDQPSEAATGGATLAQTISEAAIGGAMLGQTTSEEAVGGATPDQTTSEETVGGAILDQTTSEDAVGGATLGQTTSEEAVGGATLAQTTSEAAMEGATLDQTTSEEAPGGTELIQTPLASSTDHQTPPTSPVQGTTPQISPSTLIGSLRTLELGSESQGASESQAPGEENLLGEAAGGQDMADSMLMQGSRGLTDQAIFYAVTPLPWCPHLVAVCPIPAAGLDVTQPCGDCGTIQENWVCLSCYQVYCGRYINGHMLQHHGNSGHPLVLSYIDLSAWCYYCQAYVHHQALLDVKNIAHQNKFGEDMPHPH
The experiment in a line: HDAC6 enzyme activity inhibition assay (HDAC Fluorimetric Drug Discovery Kit). The note with it: for HDAC6 selectivity (fold): HDAC1 vs HDAC6; for IC50: same protocol as the HDAC1 enzyme activity test. The experiment is classed as biochemical. Here is the method: In order to examine the HDAC6 selectivity of the compounds of formula I of the present invention by HDAC1 and HDAC6 enzymatic activity inhibition assays, an experiment was performed using a conventional substance as a control.
HDAC enzyme activity was measured using a HDAC Fluorimetric Drug Discovery Kit (BML-AK511, 516, Enzo Life Science). For the HDAC1 enzyme activity test, human recombinant HDAC1 (BML-SE456) was used as an enzyme source, and Fluor de Lys®-“SIRT1 (BNL-KI177) was used as a substrate. A 5-fold dilution of the compound was seeded into a 96-well plate, and then 0.3 μg of the enzyme and 10 μM of the substrate were added to each well of the plate and allowed to react at 30° C. for 60 minutes. Then, Fluor de Lys®-Developer II (BML-KI176) was added thereto and allowed to react for 30 minutes, after which the fluorescence value (Ex 360, Em 460) was measured using a multi-plate reader (Flexstation 3, Molecular Device). The HDAC6 enzyme was tested using human recombinant HDAC6 (382180) (Calbiochem) according to the same protocol as the HDAC1 enzyme activity test method. Based on the resulting values, each IC50 value was calculated using GraphPad Prism4.0 program.

This note sets out measurements from patent US10538498B2, “1,3,4-oxadiazole sulfonamide derivative compounds as histone deacetylase 6 inhibitor, and the pharmaceutical composition comprising the same” (Chong Kun Dang Pharmaceutical Corp., priority 2015, dated 2020).

A word on the IC50: it is the concentration that inhibits the measured activity by half.

Take `CCS(=O)(=O)N(Cc1ccc(-c2nnc(C(F)F)o2)cc1F)c1ccccc1` [Compound 11154, N-(4-(5-(difluoromethyl)-1,3,4-oxadiazol-2-yl)-2-fluorobenzyl)-N-phenylethanesulfonamide]: the “HDAC6 selectivity (fold)” value came out at 5263 fold and the concentration for half-maximal inhibition (IC50) stood at 19 nM.

Consider `O=S(=O)(c1cccnc1)N(Cc1ccc(-c2nnc(C(F)(F)F)o2)cc1)c1cccc(F)c1` [Compound 11155, N-(3-fluorophenyl)-N-(4-(5-(trifluoromethyl)-1,3,4-oxadiazol-2-yl)benzyl)pyridine-3-sulfonamide], for which the “HDAC6 selectivity (fold)” value came out at 1250 fold and the IC50 is 80 nM.

As for `O=S(=O)(c1cccnc1)N(Cc1ccc(-c2nnc(C(F)F)o2)cc1)c1cccc(F)c1` [Compound 11156, N-(4-(5-(difluoromethyl)-1,3,4-oxadiazol-2-yl)benzyl)-N-(3-fluorophenyl)pyridine-3-sulfonamide], the “HDAC6 selectivity (fold)” value is recorded as 3448 fold and the IC50 was 29 nM.

As for `CS(=O)(=O)N(Cc1ccc(-c2nnc(C(F)F)o2)cc1)c1ccccc1` [Compound 11168, N-(4-(5-(difluoromethyl)-1,3,4-oxadiazol-2-yl)benzyl)-N-phenylmethanesulfonamide], the “HDAC6 selectivity (fold)” value amounted to 4348 fold and the IC50 worked out at 23 nM.

Consider `CS(=O)(=O)N(Cc1ccc(-c2nnc(C(F)F)o2)cc1F)c1ccccc1` [Compound 11170, N-(4-(5-(difluoromethyl)-1,3,4-oxadiazol-2-yl)-2-fluorobenzyl)-N-phenylmethanesulfonamide], for which the “HDAC6 selectivity (fold)” value is 7143 fold and the 50% inhibitory concentration (IC50) came to 14 nM.

`CS(=O)(=O)N(Cc1ccc(-c2nnc(C(F)F)o2)cn1)c1ccccc1` [Compound 11172, N-((5-(5-(difluoromethyl)-1,3,4-oxadiazol-2-yl)pyridin-2-yl)methyl)-N-phenylmethanesulfonamide]: the “HDAC6 selectivity (fold)” value came to 11111 fold and the IC50 stood at 9 nM.

Take `CS(=O)(=O)N(Cc1ccc(-c2nnc(C(F)F)o2)nc1)c1ccccc1` [Compound 11174, N-((6-(5-(difluoromethyl)-1,3,4-oxadiazol-2-yl)pyridin-3-yl)methyl)-N-phenylmethanesulfonamide]: the “HDAC6 selectivity (fold)” value is listed as 76 fold and the IC50 was 1310 nM.

Consider `CS(=O)(=O)N(Cc1ccc(-c2nnc(C(F)(F)F)o2)cc1F)c1cccc(C(F)(F)F)c1` [Compound 11175, N-(2-fluoro-4-(5-(trifluoromethyl)-1,3,4-oxadiazol-2-yl)benzyl)-N-(3-(trifluoromethyl)phenyl)methanesulfonamide], for which the “HDAC6 selectivity (fold)” value was 559 fold and the IC50 came out at 179 nM.

For the compound `CS(=O)(=O)N(Cc1ccc(-c2nnc(C(F)F)o2)cc1F)c1cccc(C(F)(F)F)c1` [Compound 11176, N-(4-(5-(difluoromethyl)-1,3,4-oxadiazol-2-yl)-2-fluorobenzyl)-N-(3-(trifluoromethyl)phenyl)methanesulfonamide], the “HDAC6 selectivity (fold)” value is listed as 3571 fold and the 50% inhibitory concentration (IC50) was found to be 28 nM.

On to `Cc1cccc(N(Cc2ccc(-c3nnc(C(F)F)o3)cc2F)S(C)(=O)=O)c1` [Compound 11178, N-(4-(5-(difluoromethyl)-1,3,4-oxadiazol-2-yl)-2-fluorobenzyl)-N-(m-tolyl)methanesulfonamide], for which the “HDAC6 selectivity (fold)” value was 5000 fold and the IC50 is 20 nM.

Consider `COc1cccc(N(Cc2ccc(-c3nnc(C(F)F)o3)cc2F)S(C)(=O)=O)c1` [Compound 11180, N-(4-(5-(difluoromethyl)-1,3,4-oxadiazol-2-yl)-2-fluorobenzyl)-N-(3-methoxyphenyl)methanesulfonamide], for which the “HDAC6 selectivity (fold)” value was determined as 1613 fold and the IC50 is 62 nM.

For `CS(=O)(=O)N(Cc1ccc(-c2nnc(C(F)(F)F)o2)cc1F)c1cccc(F)c1` [Compound 11181, N-(2-fluoro-4-(5-(trifluoromethyl)-1,3,4-oxadiazol-2-yl)benzyl)-N-(3-fluorophenyl)methanesulfonamide], the “HDAC6 selectivity (fold)” value was 3030 fold and the IC50 is 33 nM.

Turning to `CS(=O)(=O)N(Cc1ccc(-c2nnc(C(F)F)o2)cc1F)c1cccc(F)c1` [Compound 11182, N-(4-(5-(difluoromethyl)-1,3,4-oxadiazol-2-yl)-2-fluorobenzyl)-N-(3-fluorophenyl)methanesulfonamide], the “HDAC6 selectivity (fold)” value is given as 5882 fold and the IC50 was 17 nM.

For the compound `CS(=O)(=O)N(Cc1ccc(-c2nnc(C(F)(F)F)o2)c(F)c1)c1ccccc1` [Compound 11183, N-(3-fluoro-4-(5-(trifluoromethyl)-1,3,4-oxadiazol-2-yl)benzyl)-N-phenylmethanesulfonamide], the “HDAC6 selectivity (fold)” value turned out to be 426 fold and the 50% inhibitory concentration (IC50) was determined as 235 nM.

In the case of `CS(=O)(=O)N(Cc1ccc(-c2nnc(C(F)F)o2)cc1)Cc1ccc(-c2nnc(C(F)F)o2)cc1` [Compound 11186, N,N-bis(4-(5-(difluoromethyl)-1,3,4-oxadiazol-2-yl)benzyl)methanesulfonamide], the “HDAC6 selectivity (fold)” value was determined as 433 fold and the half-inhibitory concentration (IC50) is 231 nM.

Take `CS(=O)(=O)N(Cc1ccc(-c2nnc(C(F)F)o2)cc1F)c1cccc(Cl)c1` [Compound 11191, N-(3-chlorophenyl)-N-(4-(5-(difluoromethyl)-1,3,4-oxadiazol-2-yl)-2-fluorobenzyl)methanesulfonamide]: the “HDAC6 selectivity (fold)” value came out at 5000 fold and the IC50 was 20 nM.

For the compound `COc1ccc(N(Cc2ccc(-c3nnc(C(F)F)o3)cc2F)S(C)(=O)=O)cc1` [Compound 11193, N-(4-(5-(difluoromethyl)-1,3,4-oxadiazol-2-yl)-2-fluorobenzyl)-N-(4-methoxyphenyl)methanesulfonamide], the “HDAC6 selectivity (fold)” value is 3704 fold and the IC50 came out at 27 nM.

`CS(=O)(=O)N(Cc1ccc(-c2nnc(C(F)(F)F)o2)cc1F)c1cncnc1` [Compound 11194, N-(2-fluoro-4-(5-(trifluoromethyl)-1,3,4-oxadiazol-2-yl)benzyl)-N-(pyrimidin-5-yl)methanesulfonamide]: the “HDAC6 selectivity (fold)” value is 1538 fold and the half-inhibitory concentration (IC50) amounted to 65 nM.

`CS(=O)(=O)N(Cc1ccc(-c2nnc(C(F)F)o2)cc1F)c1cncnc1` [Compound 11195, N-(4-(5-(difluoromethyl)-1,3,4-oxadiazol-2-yl)-2-fluorobenzyl)-N-(pyrimidin-5-yl)methanesulfonamide]: the “HDAC6 selectivity (fold)” value came out at 1563 fold and the IC50 was 64 nM.

Take `CS(=O)(=O)N(Cc1ccc(-c2nnc(C(F)F)o2)cc1F)c1cccc(Br)c1` [Compound 11197, N-(3-bromophenyl)-N-(4-(5-(difluoromethyl)-1,3,4-oxadiazol-2-yl)-2-fluorobenzyl)methanesulfonamide]: the “HDAC6 selectivity (fold)” value amounted to 6667 fold and the IC50 was found to be 15 nM.

`CS(=O)(=O)N(Cc1ccc(-c2nnc(C(F)F)o2)cn1)c1cccc(F)c1` [Compound 11217, N-((5-(5-(difluoromethyl)-1,3,4-oxadiazol-2-yl)pyridin-2-yl)methyl)-N-(3-fluorophenyl)methanesulfonamide]: the “HDAC6 selectivity (fold)” value was 7692 fold and the IC50 came to 13 nM.
